Laboratory results: patent US10245246B2, “β-substituted β-amino acids and analogs as chemotherapeutic agents” (QUADRIGA BIOSCIENCES, INC., priority 2014, dated 2019)

Columns and labels:
[1] = tested on: LLCPK cells conditionally expressing hLAT1; type: cell-based
B16 melanoma cells = assay: In vivo tumor growth suppression, B16 efficacy model; settings: C57BL/6 mice, s.c. B16 melanoma, dosed IP daily for 12 days; test compound 5 and 10 mg/kg, melphalan 2.5 mg/kg

N[C@@H](Cc1ccc(N(CCCl)CCCl)cc1)C(=O)O [Melphalan]
percent surviving cells in cells expressing LAT1 compared to cells not expressing LAT1 (reduction) [1]: about the same
Tumor Growth (% Control), 5 days post-dosing (B16 melanoma cells): 56 % Control
Tumor Growth (% Control), End of dosing (B16 melanoma cells): 33 % Control
